According to paper PMC12291851, “Hydrogen Sulfide (H2S)-Donating Formyl Peptide Receptor 2 (FPR2) Agonists: Design, Synthesis, and Biological Evaluation in Primary Mouse Microglia Culture” (Antioxidants, 2025):

Assays:
[1] = tested on: organotypic hippocampal cultures; design: method as in PMID 37775304, PMID 37947648; conditions: nanomolar doses; ref [24],[25]; cited from earlier work
[2] = biological target: T1, FPR2 (Homo sapiens, UniProt P25090); experiment: Ca2+ mobilization (agonist activity) in FPR2-HL60 cells; conditions: for fold less potent at FPR2 than the corresponding urea/amide: ratio of FPR2 EC50 vs 3b, 3c or 4b; for Ca2+ Mobilization HL60-FPR2 Efficacy: response to 5 nM WKYMVM = 100%
T1 sequence (P25090 1-351): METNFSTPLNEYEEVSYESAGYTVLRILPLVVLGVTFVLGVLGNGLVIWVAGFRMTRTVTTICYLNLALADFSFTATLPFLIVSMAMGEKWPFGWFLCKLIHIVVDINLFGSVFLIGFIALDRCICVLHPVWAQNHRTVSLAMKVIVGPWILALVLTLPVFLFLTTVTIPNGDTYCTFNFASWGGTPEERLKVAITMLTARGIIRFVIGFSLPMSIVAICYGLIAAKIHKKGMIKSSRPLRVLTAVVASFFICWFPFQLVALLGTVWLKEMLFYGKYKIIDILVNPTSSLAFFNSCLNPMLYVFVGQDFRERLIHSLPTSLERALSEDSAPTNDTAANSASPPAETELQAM

[3] = tested on: HepG2 cells; experiment: Intracellular H2S release with WSP-1 probe; assay type: cell-based, human
Procedure: All cell culture reagents were purchased from S.I.A.L. S.r.l. (Rome, Italy). WSP-1 (Washington State Probe-1, 3′-methoxy-3-oxo-3H-spiro[isobenzofuran-1,9′-xanthen]-6′-yl 2-(pyridine-2-yl-disulfanyl benzoate), was obtained from Cayman Chemical (Cayman, Ann Arbor, MI, USA). HepG2, human hepatocellular carcinoma cells, was obtained from American Type Culture Collection (ATCC, Bethesda, MD, USA). Human hepatocellular carcinoma cells (HepG2) were cultured in Minimum Essential Eagle’s Medium. This medium was supplemented with 10% (v/v) Fetal Bovine Serum, 1% (v/v) Glutamine and 1% (v/v) Penicillin-Streptomycin, 1% non-essential amino acids. Cells were cultivated at 37 °C with 5% CO2 at saturated humidity.
These experiments were carried out as already described. HepG2 cells were cultured up to about 90% confluence, and 24 h before the experiment cells were seeded into a 96-well flat bottom black plate (50,000 cells per well). After 24 h, the medium was replaced and cells were incubated at 37 °C for 30 min with a 10 mM solution of the fluorescent WSP-1 probe, which is highly sensitive for H2S detection. After incubation, the supernatant was removed and replaced with different concentrations (100, 200, and 300 µM) of the tested compounds dissolved in HBSS buffer. […] ADT 100 µM was used as a slow H2S-donor reference compound. Data were analyzed by one-way ANOVA for repeated measures, followed by post hoc Bonferroni’s multiple comparison test. Results are expressed as mean ± SEM of 3 independent experiments in triplicate. Statistical significance was accepted at a level of p < 0.05.
Next, we assessed the intracellular H2S release of thioureas and thioamides in HepG2 cells. The compounds were tested at different concentrations (100–300 μM) to evaluate if the release was dose-dependent. We also assayed ADT-OH and TIA as reference H2S-donors, and 3a as a negative control. The results were normalized to the fluorescence signal obtained with 100 μM ADT-OH.

[4] = Cell-free MTT-based H2S release assay; assay type: physicochemical; conditions: 24 h incubation in MEM with 10% DMSO
Procedure: Solutions at different concentrations of each compound in 100 µL of serum-free MEM/10% DMSO with 0.5 mg/mL 3-(4,5-dimethylthiazol-2yl)-2,5-diphenyltetrazolium bromide (MTT) were incubated for 5 h or 24 h in a humidified incubator at 37 °C in 5% CO2 atmosphere. The experimental design comprised blank wells containing only medium and MTT, and a H2S calibration curve obtained by incubating nine solutions at decreasing concentrations (100 µM to 0.01 µM) of NaHS in medium and MTT. At the end of incubation time, the supernatant was removed, the […] crystals were dissolved in 100 µL DMSO/EtOH (1:1 v/v), and absorbance values were read using a Victor 3 plate reader (PerkinElmer, Shelton, CT, USA) at 570 nm. H2S values are expressed as mean ± S.E.M. of the results of three independent experiments conducted in triplicate, and were plotted using GraphPad Prism 7.
To decipher such results and considering the redox properties of H2S, we questioned if H2S released by our compounds in the culture media could interfere with the conversion of MTT (3-[4,5-dimethylthiazol-2-yl]-2,5-diphenyl tetrazolium bromide) to formazan, which is usually related to cell viability. Thus, we ran cell-free experiments in which MTT was used as the substrate to capture the reductive action of H2S. We found, in agreement with Gerő et al., that some of our thioureas and thioamides reduced MTT to formazan after 24 h incubation in MEM with 10% DMSO.

[5] = tested on: HepG2 hepatocarcinoma cells; experiment: MTT cell viability assay, MTT added directly to treated media; assay type: cell-based, human; conditions: 5% DMSO
Procedure: The cytotoxicity of our compounds was assessed using the well-established MTT assay. HepG2 hepatocarcinoma cells were cultured in Minimum Essential Medium (MEM) (Euroclone, Pero, Italy), supplemented with 10% fetal bovine serum (Euroclone, Pero, Italy), 100 U/mL penicillin, and 100 µg/mL streptomycin sulfate, at 37 °C in a humidified incubator in 5% CO2 atmosphere. For the MTT assays, these cells were cultured up to about 90% confluence and were then seeded at a concentration of 20,000 cells per well in 96-well plates. After 24 h, the culture medium was replaced with solutions at various concentrations of each compound in MEM/DMSO 5% (v/v). Control wells were incorporated in the experimental design, consisting of vehicle (MEM/DMSO 5%) and pure medium controls.
In the first round of cytotoxicity assays, 0.5 mg/mL MTT was added to each well 2 or 24 h from treatment and left to incubate for 3–5 h. In the second round of cytotoxicity assays, at 2 or 24 h after treatment, treated media were removed, the cells were washed once in PBS, and fresh medium containing 0.5 mg/mL MTT was added to each well and left to incubate for 3–5 h.
Subsequently, the supernatant was removed, and the formazan crystals were dissolved in DMSO/EtOH 1:1 (100 µL/well). Absorbance values were then recorded from each well using a Victor 3 plate reader (PerkinElmer, Shelton, CT, USA) at 570 nm. All presented data were obtained from 3 to 5 experiments performed in triplicate. Cell viability values are expressed as mean ± S.E.M. and were plotted using GraphPad Prism 7.
Next, we assessed H2S release in a biological environment using human hepatocarcinoma HepG2 cells as a model. The intracellular release of H2S was detected with the WSP-1 probe, a turn-on fluorescent probe that selectively and irreversibly reacts with H2S. Considering that a high micromolar concentration of the test compounds is required to obtain a robust fluorescent signal, we first evaluated the compounds’ cytotoxicity after 2 h and 24 h of incubation with the MTT assay in HepG2 cells. […] We accounted for this by adding a vehicle control with 5% DMSO and a control without DMSO to our experimental design.

[6] = biological target: T1, FPR2; experiment: FPR2 desensitization: inhibition of WKYMVM-induced Ca2+ mobilization in FPR2-HL60 cells; assay type: cell-based; design: expressed in transfected cells; host or cells: HL-60 cells; conditions: 10 min preincubation, then 5 nM WKYMVM
From the text: Finally, we assessed the ability of compounds to induce receptor desensitization at FPR2 by measuring the inhibition of Ca^2+ mobilization induced by subsequent treatment with a standard FPR2 agonist (IC50, Table 1) because FPR2 undergoes homologous desensitization after stimulation with agonists, resulting in functional antagonism (IC50, Table 1). […] We also evaluated the effects of the thiourea and thioamide derivatives on Ca^2+ mobilization in FPR1-HL60-transfected cells after stimulation with the FPR1 agonist (IC50, Table 1).

[7] = biological target: T1, FPR2; experiment: cell-based
[8] = HepG2, tested concentrations 100-300 μM, 60 min

SMILES	intracellular H2S release, WSP-1 fluorescence signal vs vehicle [3, 8]	absorbance signal (MTT reduction to formazan) indicative of H2S release [4]	MTT absorbance signal vs control ([5]; HepG2, 2 h incubation)	Ca2+ Mobilization HL60-FPR2 IC50 (FPR2 desensitization) [6]	fold less potent at FPR2 than the corresponding urea/amide [2]	Ca2+ Mobilization HL60-FPR2 Efficacy [2] [%]	EC50 [7] [nM]	intracellular H2S release, WSP-1 fluorescence signal vs vehicle ([3]; HepG2, at 200 and 300 μM)	other results
N#Cc1ccc(C[C@H](NC(=O)Nc2ccc(F)cc2)C(=O)N2CCc3ccccc32)cc1 [3b, (S)-1-[3-(4-cyanophenyl)-1-(indolin-1-yl)-1-oxopropan-2-yl]-3-(4-fluorophenyl)urea]									protective and anti-inflammatory properties [1]: beneficial protective and anti-inflammatory properties at nanomolar doses
N#Cc1ccc(C[C@H](NC(=S)Nc2ccc(F)cc2)C(=O)NCC2(c3ccc(F)c(Cl)c3)CC2)cc1 [5a, (S)-N-[[1-(3-Chloro-4-fluorophenyl)cyclopropyl]methyl]-3-(4-cyanophenyl)-2-[3-(4-fluorophenyl)thioureido]propanamide]	comparable to vehicle	did not give off any detectable absorbance signal	pronounced signal						Ca2+ Mobilization HL60-FPR2 EC50 ([2]; HL-60 cells transfected with human FPR2): inactive; MTT absorbance signal vs control ([5]; HepG2, 24 h incubation): higher than the control
N#Cc1ccc(C[C@H](NC(=S)Nc2ccc(F)cc2)C(=O)N2CCc3ccccc32)cc1 [5b, (S)-1-[3-(4-Cyanophenyl)-1-(indolin-1-yl)-1-oxopropan-2-yl]-3-(4-fluorophenyl)thiourea]		significant absorbance signal with slight dose-dependent effects		inactive	more than 10 fold	65	2200 ± 700		
N#Cc1ccc(C[C@H](NC(=S)Nc2ccc(F)cc2)C(=O)N2CCc3ccc(F)cc32)cc1 [5c]		significant absorbance signal with slight dose-dependent effects	pronounced signal	inactive	more than 10 fold	105	12000 ± 32000	statistically significant increase in the fluorescent signal	
N#Cc1ccc(C[C@H](NC(=S)Nc2ccc(Br)cc2)C(=O)N2CCc3ccccc32)cc1 [6b, (S)-1-(4-Bromophenyl)-3-[3-(4-cyanophenyl)-1-(indolin-1-yl)-1-oxopropan-2-yl]thiourea]			pronounced signal		more than 10 fold	65	1700 ± 700	statistically significant increase in the fluorescent signal	IC50 [6]: 2200 ± 400 nM; MTT absorbance signal vs control ([5]; HepG2, 24 h incubation): higher than the control
N#Cc1ccc(C[C@H](NC(=O)Nc2ccc(F)cc2)C(=S)NCC2(c3ccc(F)c(Cl)c3)CC2)cc1 [7a, (S)-N-[[1-(3-Chloro-4-fluorophenyl)cyclopropyl]methyl]-3-(4-cyanophenyl)-2-[3-(4-fluorophenyl)ureido]propanethioamide]	significant fluorescence signal increase at all tested concentrations	below the assay’s detection limit		submicromolar concentration		145	2300 ± 800		IC50 [6]: 300 ± 100 nM; intracellular level of H2S vs reference H2S donor ADT ([3]; HepG2, at 200 and 300 μM, p < 0.001 vs. ADT): more than the reference H2S donor ADT; levels of H2S release in HepG2 cells ([3]; summary of WSP-1 results): very high levels of H2S release
O=c1cc(-c2cccc(O)c2)ss1 [ADT-OH, 5-(5-hydroxyphenyl)-3H-1,2-dithiol-3-one, reference compound]	statistically significant increase in fluorescence								
[Na+].[SH-] [NaHS, sodium hydrogen sulfide, reference compound]		strong dose-dependent signal							
NC(=O)c1ccc(O)cc1 [TIA, 4-hydroxybenzamide, reference compound]								statistically significant increase in fluorescence	
